Assay results published in ChEMBL document CHEMBL4431366, “Identification of a benzo imidazole thiazole derivative as the specific irreversible inhibitor of protein tyrosine phosphatase” (Bioorg Med Chem Lett, 2016).
Active and inactive are the calls of the source. The rule behind the calls is not given here.

Key:
[1] = molecular target: T1, Protein phosphatase 1A (Homo sapiens) (UniProt P35813); test: Time-dependent irreversible inhibition of N-terminal His-tagged PPM1A (unknown origin) expressed in Escherichia coli BL21 (DE3) cells at 80 uM preincubated with enzyme followed by p-nitrophenyl phosphate substrate addition
T1 sequence (whole entry): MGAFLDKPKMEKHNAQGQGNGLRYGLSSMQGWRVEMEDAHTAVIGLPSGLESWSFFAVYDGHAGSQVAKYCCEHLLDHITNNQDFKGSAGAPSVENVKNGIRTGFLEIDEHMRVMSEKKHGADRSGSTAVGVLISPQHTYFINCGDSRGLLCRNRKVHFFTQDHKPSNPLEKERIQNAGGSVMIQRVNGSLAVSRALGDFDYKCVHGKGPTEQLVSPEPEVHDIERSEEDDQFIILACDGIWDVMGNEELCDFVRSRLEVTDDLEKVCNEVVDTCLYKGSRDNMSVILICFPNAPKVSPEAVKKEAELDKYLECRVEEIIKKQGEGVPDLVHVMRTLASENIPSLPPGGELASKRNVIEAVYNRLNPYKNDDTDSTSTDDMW

[2] = molecular target: T2, Tyrosine-protein phosphatase non-receptor type 5 (Homo sapiens) (UniProt P54829)
T2 sequence (whole entry): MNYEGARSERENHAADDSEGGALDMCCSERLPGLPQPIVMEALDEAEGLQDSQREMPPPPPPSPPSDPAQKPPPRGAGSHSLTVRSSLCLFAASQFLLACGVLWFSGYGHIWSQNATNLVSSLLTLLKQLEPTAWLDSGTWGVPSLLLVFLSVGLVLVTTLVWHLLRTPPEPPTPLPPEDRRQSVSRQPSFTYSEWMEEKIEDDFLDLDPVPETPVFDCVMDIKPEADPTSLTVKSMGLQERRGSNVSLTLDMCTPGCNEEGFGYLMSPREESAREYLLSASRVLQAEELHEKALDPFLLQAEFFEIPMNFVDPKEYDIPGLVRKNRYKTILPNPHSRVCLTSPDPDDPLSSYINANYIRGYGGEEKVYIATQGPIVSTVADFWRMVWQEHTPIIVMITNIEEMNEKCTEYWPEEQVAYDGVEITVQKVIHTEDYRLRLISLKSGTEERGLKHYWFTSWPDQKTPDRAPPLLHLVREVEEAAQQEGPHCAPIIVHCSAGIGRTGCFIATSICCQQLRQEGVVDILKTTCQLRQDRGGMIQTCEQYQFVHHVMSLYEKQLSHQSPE
Description: Time-dependent irreversible inhibition of N-terminal His-tagged STEP catalytic domain (unknown origin) expressed in Escherichia coli BL21 (DE3) cells at 100 uM preincubated with enzyme followed by p-nitrophenyl phosphate substrate addition

[3] = molecular target: T3, Protein phosphatase 1G (Homo sapiens) (UniProt O15355); test: Time-dependent irreversible inhibition of N-terminal His-tagged PPM1G (unknown origin) expressed in Escherichia coli BL21 (DE3) cells at 80 uM preincubated with enzyme followed by p-nitrophenyl phosphate substrate addition
T3 sequence (whole entry): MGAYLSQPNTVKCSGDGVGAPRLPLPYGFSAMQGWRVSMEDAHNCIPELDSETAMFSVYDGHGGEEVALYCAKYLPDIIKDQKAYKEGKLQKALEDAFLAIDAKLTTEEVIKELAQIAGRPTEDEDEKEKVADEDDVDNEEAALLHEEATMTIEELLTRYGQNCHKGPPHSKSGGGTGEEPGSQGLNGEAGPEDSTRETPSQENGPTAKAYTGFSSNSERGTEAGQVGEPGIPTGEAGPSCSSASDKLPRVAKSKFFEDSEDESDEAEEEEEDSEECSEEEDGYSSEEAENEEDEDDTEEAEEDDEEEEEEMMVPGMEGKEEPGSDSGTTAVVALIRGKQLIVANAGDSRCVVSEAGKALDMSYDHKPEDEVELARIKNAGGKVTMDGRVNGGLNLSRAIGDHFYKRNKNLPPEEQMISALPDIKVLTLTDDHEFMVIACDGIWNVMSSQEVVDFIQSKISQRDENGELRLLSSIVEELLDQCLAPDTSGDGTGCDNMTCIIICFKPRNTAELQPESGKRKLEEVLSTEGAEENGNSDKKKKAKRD

[4] = molecular target: T2, Tyrosine-protein phosphatase non-receptor type 5 (Homo sapiens); test: (§1) Time-dependent irreversible inhibition of N-terminal His-tagged STEP catalytic domain (unknown origin) expressed in Escherichia coli BL21 (DE3) cells preincubated with enzyme followed by p-nitrophenyl phosphate substrate addition
[5] = molecular target: T4, Tyrosine-protein phosphatase non-receptor type 5 (Homo sapiens, UniProt P54829); test: as §1
T4 sequence (P54829 whole entry): T2 sequence (whole entry)

[6] = molecular target: T2, Tyrosine-protein phosphatase non-receptor type 5 (Homo sapiens); test: (§2) Inhibition of N-terminal His-tagged STEP catalytic domain (unknown origin) expressed in Escherichia coli BL21 (DE3) cells using p-nitrophenyl phosphate as substrate
[7] = molecular target: T4, Tyrosine-protein phosphatase non-receptor type 5; test: as §2
[8] = molecular target: T5, Protein phosphatase 1B (Homo sapiens) (UniProt O75688); test: Time-dependent irreversible inhibition of N-terminal His-tagged PPM1B (unknown origin) expressed in Escherichia coli BL21 (DE3) cells at 80 uM preincubated with enzyme followed by p-nitrophenyl phosphate substrate addition
T5 sequence (whole entry): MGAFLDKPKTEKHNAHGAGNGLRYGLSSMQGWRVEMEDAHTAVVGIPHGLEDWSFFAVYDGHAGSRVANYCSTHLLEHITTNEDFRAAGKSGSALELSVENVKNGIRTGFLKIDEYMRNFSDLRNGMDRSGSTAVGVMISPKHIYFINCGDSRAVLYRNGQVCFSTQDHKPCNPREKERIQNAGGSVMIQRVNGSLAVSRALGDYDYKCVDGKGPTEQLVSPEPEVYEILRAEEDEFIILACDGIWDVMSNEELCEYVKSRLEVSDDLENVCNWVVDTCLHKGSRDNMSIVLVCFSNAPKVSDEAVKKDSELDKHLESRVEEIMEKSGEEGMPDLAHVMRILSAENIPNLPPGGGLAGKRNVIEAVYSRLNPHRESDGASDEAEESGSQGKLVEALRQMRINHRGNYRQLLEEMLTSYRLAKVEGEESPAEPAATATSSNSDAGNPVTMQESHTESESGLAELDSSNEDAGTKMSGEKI

[9] = molecular target: T6, Tyrosine-protein phosphatase non-receptor type 1 (Homo sapiens) (UniProt P18031); test: Time-dependent irreversible inhibition of N-terminal His-tagged PTP1B (unknown origin) expressed in Escherichia coli BL21 (DE3) cells preincubated with enzyme followed by p-nitrophenyl phosphate substrate addition
T6 sequence (whole entry): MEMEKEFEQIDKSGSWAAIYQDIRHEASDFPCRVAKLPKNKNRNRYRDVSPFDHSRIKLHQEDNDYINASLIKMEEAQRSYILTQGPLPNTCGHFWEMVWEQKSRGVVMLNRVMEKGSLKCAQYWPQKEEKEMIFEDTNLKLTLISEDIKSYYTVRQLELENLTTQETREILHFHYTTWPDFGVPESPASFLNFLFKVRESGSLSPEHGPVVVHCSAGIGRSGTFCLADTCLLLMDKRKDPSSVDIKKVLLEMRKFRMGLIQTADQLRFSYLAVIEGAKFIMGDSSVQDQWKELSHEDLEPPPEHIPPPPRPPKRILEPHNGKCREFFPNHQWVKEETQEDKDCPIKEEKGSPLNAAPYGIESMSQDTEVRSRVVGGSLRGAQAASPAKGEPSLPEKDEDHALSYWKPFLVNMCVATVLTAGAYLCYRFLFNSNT

Bacteria = test: Time-dependent irreversible inhibition of N-terminal His-tagged bacterial YOPH expressed in Escherichia coli BL21 (DE3) cells preincubated with enzyme followed by p-nitrophenyl phosphate substrate addition
[10] = molecular target: T7, Tyrosine-protein phosphatase non-receptor type 22 (Homo sapiens) (UniProt Q9Y2R2); test: Time-dependent irreversible inhibition of N-terminal His-tagged LYP (1 to 294 residues) (unknown origin) expressed in Escherichia coli BL21 (DE3) cells preincubated with enzyme followed by p-nitrophenyl phosphate substrate addition
T7 sequence (whole entry): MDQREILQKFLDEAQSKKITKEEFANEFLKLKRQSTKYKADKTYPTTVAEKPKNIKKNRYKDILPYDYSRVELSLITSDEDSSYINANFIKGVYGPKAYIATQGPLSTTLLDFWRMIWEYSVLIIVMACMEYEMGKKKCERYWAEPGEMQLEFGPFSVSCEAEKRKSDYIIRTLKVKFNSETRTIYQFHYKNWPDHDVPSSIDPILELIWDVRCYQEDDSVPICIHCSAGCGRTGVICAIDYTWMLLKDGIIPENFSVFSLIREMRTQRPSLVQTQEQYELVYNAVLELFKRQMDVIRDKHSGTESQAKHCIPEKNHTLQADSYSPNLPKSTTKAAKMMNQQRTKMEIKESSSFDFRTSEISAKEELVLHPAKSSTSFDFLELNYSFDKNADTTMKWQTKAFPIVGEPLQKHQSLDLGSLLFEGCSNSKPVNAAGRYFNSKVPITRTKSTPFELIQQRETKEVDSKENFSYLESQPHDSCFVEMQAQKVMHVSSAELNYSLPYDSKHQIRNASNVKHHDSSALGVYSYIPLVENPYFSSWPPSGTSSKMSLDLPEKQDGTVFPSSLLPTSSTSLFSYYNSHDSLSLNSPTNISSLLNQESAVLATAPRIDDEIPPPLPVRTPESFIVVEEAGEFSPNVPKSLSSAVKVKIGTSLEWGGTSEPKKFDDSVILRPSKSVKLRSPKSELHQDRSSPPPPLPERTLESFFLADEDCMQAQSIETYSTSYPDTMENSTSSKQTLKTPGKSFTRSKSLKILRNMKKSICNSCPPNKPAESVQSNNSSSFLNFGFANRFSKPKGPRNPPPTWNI

[11] = molecular target: T8, Tyrosine-protein phosphatase non-receptor type 9 (Homo sapiens) (UniProt P43378); test: Time-dependent irreversible inhibition of N-terminal His-tagged MEG2 (277 to 583 residues) (unknown origin) expressed in Escherichia coli BL21 (DE3) cells preincubated with enzyme followed by p-nitrophenyl phosphate substrate addition
T8 sequence (whole entry): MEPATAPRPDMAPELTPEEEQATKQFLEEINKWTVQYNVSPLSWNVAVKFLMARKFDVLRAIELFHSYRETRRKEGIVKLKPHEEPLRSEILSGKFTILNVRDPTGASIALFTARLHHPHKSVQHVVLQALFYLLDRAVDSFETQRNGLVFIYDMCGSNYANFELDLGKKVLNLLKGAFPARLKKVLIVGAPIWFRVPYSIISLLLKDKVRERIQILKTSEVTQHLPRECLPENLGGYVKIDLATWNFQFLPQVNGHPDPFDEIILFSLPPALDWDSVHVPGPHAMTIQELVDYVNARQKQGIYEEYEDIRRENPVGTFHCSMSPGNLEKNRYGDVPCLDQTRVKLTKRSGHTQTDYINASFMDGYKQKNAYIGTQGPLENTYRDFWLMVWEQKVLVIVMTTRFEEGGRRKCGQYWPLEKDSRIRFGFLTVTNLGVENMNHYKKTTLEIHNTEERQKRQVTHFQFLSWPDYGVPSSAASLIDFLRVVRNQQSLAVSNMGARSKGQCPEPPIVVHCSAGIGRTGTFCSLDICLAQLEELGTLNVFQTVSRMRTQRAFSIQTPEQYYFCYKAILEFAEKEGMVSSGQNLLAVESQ

Cc1cc(/C=c2/sc3nc4ccccc4n3c2=O)c(C)n1-c1cccc(C(=O)O)c1
TDI [1]: Active | TDI [2]: Active | TDI [3]: Active | K [4]: 0.0439 min⁻¹ | Kinact [4]: 0.068 s⁻¹ | Ki [5]: 21.6 µM | inhibition [6]: Dose-dependent effect | IC50 [7]: 8.3 µM | TDI [8]: Active | K [9]: 0.0859 min⁻¹ | K (Bacteria): 0.0486 min⁻¹ | K [10]: 0.0272 min⁻¹ | K [11]: 0.0463 min⁻¹

O=C(O)c1cccc(/C=c2/sc3nc4ccccc4n3c2=O)c1
IC50 [7]: > 300 µM

Cc1ccc([N+](=O)[O-])cc1-c1ccc(/C=c2\sc3nc4ccccc4n3c2=O)o1
IC50 [7]: > 300 µM

O=C(O)c1ccc(N2C(=O)c3ccc(Br)cc3C2=O)cc1O
IC50 [7]: 273 µM

O=C(CSc1nc2cc(Cl)ccc2o1)Nc1ccc(C(=O)O)cc1
IC50 [7]: > 300 µM

COc1cc(/C=c2/sc3nc4ccccc4n3c2=O)cc(Cl)c1OCc1cccc(C(=O)O)c1
IC50 [7]: > 300 µM

O=C(O)c1cc2ccoc2cc(C(=O)O)c1=O
IC50 [7]: > 300 µM

Cc1cc2cc(OCC(=O)O)ccc2n1-c1ccc(Cl)cc1
IC50 [7]: > 300 µM
